Laboratory results from PMC8640678 (Journal of Pesticide Science, 2021).

How the values were obtained:
HcbA3C-His [1] = test: NADH oxidation at […] nm, steady-state fit; assay type: biochemical, Nocardioides sp. PD653; conditions: 1–8 µM FMN, 10–120 µM NADH, 25 nM enzyme; ping-pong; cited from earlier work
HcbB3 with HcbB2 = target: T1, HcbB3 with HcbB2 (Nocardioides sp. PD653, UniProt A0A1V1W0L1); test: PCP dissipation by recombinant E. coli cells; assay type: cell-based; conditions: co-expressed HcbB2; whole cells
T1 sequence (A0A1V1W0L1 1-506): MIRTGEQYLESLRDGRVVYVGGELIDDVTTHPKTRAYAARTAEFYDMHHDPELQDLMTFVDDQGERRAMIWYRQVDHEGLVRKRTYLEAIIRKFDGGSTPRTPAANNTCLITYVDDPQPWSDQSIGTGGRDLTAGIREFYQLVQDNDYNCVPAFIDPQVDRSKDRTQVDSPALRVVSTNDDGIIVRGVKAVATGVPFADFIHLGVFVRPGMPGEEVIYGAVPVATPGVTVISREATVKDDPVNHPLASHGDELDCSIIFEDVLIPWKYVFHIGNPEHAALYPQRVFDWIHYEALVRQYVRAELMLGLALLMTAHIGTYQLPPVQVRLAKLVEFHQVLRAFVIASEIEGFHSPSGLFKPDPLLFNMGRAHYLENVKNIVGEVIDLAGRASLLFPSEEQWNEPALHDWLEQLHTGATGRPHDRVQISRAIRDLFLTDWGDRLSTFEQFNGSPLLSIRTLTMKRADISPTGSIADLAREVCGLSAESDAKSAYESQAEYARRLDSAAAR

HcbA3C-His [2] = test: spectrofluorometric titration; assay type: binding, Nocardioides sp. PD653; conditions: oxidized FMN; no NADH stated; cited from earlier work

Compound	Km (HcbA3C-His [1])	PCP dissipation by recombinant E. coli cells (HcbB3 with HcbB2)	Kd (HcbA3C-His [2])
NC(=O)C1=CN([C@@H]2O[C@H](COP(=O)(O)OP(=O)(O)OC[C@H]3O[C@@H](n4cnc5c(N)ncnc54)[C@H](O)[C@@H]3O)[C@@H](O)[C@H]2O)C=CC1 [NADH]	51.7 ± 11.6 µM		
Oc1c(Cl)c(Cl)c(Cl)c(Cl)c1Cl [PCP]		co-expression of hcbB1 and hcbB3 or hcbB2 and hcbB3 led to significant PCP dissipation activity	
Cc1cc2nc3c(=O)[nH]c(=O)nc-3n(C[C@H](O)[C@H](O)[C@H](O)COP(=O)(O)O)c2cc1C [FMN]	4.43 ± 0.69 µM		750 ± 170 nM
